Data taken from paper PMC6874179, “Development of Macrocycle Kinase Inhibitors for ALK2 Using Fibrodysplasia Ossificans Progressiva‐Derived Endothelial Cells” (JBMR Plus, 2019).

What was measured:
Assay in all cases: Proqinase Kinase profiling
Format in all cases: biochemical
Conditions in all cases: read-out: % inhibition at 100nM
EGFR_S752-I759del = molecular target: T1, EGFR_S752-I759del (Homo sapiens, UniProt P00533, DEL752-759)
T1 construct: purchased DiscoverX

WEE1 = molecular target: T2, WEE1 (Homo sapiens, UniProt P30291)
T2 construct: purchased DiscoverX

PAK2 = molecular target: T3, PAK2 (Homo sapiens, UniProt Q13177)
T3 construct: purchased DiscoverX
T3 sequence (Q13177 whole entry): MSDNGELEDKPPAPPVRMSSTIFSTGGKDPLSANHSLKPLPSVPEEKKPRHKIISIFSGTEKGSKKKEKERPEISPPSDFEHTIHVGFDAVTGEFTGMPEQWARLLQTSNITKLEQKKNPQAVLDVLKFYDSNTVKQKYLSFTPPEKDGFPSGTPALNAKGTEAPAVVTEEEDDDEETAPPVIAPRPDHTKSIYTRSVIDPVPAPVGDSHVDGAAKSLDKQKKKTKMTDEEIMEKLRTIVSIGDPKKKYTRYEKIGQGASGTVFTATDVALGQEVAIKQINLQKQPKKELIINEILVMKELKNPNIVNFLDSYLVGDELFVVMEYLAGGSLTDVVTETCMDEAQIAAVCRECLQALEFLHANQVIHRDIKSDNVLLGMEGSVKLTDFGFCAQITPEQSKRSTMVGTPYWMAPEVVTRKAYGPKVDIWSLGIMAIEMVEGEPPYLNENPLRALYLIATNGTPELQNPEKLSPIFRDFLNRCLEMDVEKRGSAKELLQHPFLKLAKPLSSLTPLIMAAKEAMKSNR

FGFR3 = molecular target: T4, FGFR3 (Homo sapiens, UniProt P22607)
T4 construct: purchased DiscoverX

MAPK9 = molecular target: T5, MAPK9 (Homo sapiens, UniProt P45984)
T5 construct: purchased DiscoverX

MAP3K7 = molecular target: T6, MAP3K7 (Homo sapiens, UniProt O43318)
T6 construct: purchased DiscoverX
T6 sequence (O43318 1-303 limits assumed): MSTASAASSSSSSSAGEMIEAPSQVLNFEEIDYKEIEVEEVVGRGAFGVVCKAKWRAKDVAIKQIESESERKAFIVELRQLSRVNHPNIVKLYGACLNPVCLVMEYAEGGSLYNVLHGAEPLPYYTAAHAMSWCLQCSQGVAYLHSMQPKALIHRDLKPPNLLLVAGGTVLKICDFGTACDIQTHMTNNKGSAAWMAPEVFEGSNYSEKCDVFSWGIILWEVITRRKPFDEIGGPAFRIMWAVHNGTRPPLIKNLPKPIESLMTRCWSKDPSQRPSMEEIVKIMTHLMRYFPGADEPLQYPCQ

CLK1 = molecular target: T7, CLK1 (Homo sapiens, UniProt P49759)
T7 construct: purchased DiscoverX

EPHB2 = molecular target: T8, EPHB2 (Homo sapiens, UniProt P29323)
T8 construct: purchased DiscoverX

GRK7 = molecular target: T9, GRK7 (Homo sapiens, UniProt Q8WTQ7)
T9 construct: purchased DiscoverX

MAP3K3 = molecular target: T10, MAP3K3 (Homo sapiens, UniProt Q99759)
T10 construct: purchased DiscoverX

MAPKAPK2 = molecular target: T11, MAPKAPK2 (Homo sapiens, UniProt P49137)
T11 construct: purchased DiscoverX
T11 sequence (P49137 whole entry): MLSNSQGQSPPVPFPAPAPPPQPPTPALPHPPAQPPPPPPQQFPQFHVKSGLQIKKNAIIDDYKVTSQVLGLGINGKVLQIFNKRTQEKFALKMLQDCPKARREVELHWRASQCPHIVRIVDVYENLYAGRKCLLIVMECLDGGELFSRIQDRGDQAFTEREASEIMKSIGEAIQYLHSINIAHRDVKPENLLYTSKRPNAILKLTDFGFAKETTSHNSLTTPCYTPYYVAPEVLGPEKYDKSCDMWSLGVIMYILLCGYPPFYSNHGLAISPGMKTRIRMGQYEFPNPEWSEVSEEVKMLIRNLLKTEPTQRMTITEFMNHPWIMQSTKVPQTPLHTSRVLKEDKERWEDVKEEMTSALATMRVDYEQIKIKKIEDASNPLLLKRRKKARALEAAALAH

WNK1 = molecular target: T12, WNK1 (Homo sapiens, UniProt Q9H4A3)
T12 construct: purchased DiscoverX

RPS6KA4 = molecular target: T13, RPS6KA4 (Homo sapiens, UniProt O75676)
T13 construct: purchased DiscoverX

WNK2 = molecular target: T14, WNK2 (Homo sapiens, UniProt Q9Y3S1)
T14 construct: purchased DiscoverX

ABL1_F317I = molecular target: T15, ABL1_F317I (Homo sapiens, UniProt P00519, F317I)
T15 construct: purchased DiscoverX

PIM3 = molecular target: T16, PIM3 (Homo sapiens, UniProt Q86V86)
T16 construct: purchased DiscoverX

MAPK12 = molecular target: T17, MAPK12 (Homo sapiens, UniProt P53778)
T17 construct: purchased DiscoverX

PBK = molecular target: T18, PBK (Homo sapiens, UniProt Q96KB5)
T18 construct: purchased DiscoverX

MKNK1 = molecular target: T19, MKNK1 (Homo sapiens, UniProt Q9BUB5)
T19 construct: purchased DiscoverX

TSSK2 = molecular target: T20, TSSK2 (Homo sapiens, UniProt Q96PF2)
T20 construct: purchased DiscoverX
T20 sequence (Q96PF2 whole entry): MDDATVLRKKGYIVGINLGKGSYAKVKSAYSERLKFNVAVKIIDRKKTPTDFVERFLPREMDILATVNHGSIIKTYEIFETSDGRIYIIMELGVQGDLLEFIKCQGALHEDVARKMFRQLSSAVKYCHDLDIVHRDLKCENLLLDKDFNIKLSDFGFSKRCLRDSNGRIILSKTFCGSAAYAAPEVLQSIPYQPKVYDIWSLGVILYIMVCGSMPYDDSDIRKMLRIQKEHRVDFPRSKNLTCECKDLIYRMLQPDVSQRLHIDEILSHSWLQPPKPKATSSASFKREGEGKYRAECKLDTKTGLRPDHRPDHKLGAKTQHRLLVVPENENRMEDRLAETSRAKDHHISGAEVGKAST

ZAK = molecular target: T21, ZAK (Homo sapiens, UniProt Q9NYL2)
T21 construct: purchased DiscoverX
T21 sequence (Q9NYL2 whole entry): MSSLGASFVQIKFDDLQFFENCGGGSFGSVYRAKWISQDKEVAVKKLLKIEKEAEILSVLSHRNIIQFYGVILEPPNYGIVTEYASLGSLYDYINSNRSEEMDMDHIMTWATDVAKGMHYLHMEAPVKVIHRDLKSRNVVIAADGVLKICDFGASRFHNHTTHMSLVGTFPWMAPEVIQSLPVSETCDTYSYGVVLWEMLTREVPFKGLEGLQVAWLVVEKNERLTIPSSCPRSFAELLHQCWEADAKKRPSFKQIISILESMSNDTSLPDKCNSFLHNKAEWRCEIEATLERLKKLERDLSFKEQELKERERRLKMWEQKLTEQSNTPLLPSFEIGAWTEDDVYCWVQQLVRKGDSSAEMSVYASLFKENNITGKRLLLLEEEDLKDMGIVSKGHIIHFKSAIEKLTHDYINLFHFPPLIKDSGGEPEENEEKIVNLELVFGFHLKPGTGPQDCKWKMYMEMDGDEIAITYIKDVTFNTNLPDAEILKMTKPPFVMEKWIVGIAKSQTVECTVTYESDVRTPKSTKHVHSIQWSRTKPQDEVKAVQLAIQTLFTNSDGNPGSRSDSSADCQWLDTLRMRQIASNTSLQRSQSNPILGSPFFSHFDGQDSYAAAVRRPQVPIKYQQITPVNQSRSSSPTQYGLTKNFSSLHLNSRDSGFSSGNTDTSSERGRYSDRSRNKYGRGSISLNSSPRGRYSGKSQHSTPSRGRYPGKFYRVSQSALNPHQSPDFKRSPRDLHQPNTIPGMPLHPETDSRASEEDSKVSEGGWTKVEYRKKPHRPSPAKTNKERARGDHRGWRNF

STK17A = molecular target: T22, STK17A (Homo sapiens, UniProt Q9UEE5)
T22 construct: purchased DiscoverX

SGK3 = molecular target: T23, SGK3 (Homo sapiens, UniProt Q96BR1)
T23 construct: purchased DiscoverX

CLK2 = molecular target: T24, CLK2 (Homo sapiens, UniProt P49760)
T24 construct: purchased DiscoverX

AKT1 = molecular target: T25, AKT1 (Homo sapiens, UniProt P31749)
T25 construct: purchased DiscoverX

EPHB3 = molecular target: T26, EPHB3 (Homo sapiens, UniProt P54753)
T26 construct: purchased DiscoverX
T26 sequence (P54753 34-998): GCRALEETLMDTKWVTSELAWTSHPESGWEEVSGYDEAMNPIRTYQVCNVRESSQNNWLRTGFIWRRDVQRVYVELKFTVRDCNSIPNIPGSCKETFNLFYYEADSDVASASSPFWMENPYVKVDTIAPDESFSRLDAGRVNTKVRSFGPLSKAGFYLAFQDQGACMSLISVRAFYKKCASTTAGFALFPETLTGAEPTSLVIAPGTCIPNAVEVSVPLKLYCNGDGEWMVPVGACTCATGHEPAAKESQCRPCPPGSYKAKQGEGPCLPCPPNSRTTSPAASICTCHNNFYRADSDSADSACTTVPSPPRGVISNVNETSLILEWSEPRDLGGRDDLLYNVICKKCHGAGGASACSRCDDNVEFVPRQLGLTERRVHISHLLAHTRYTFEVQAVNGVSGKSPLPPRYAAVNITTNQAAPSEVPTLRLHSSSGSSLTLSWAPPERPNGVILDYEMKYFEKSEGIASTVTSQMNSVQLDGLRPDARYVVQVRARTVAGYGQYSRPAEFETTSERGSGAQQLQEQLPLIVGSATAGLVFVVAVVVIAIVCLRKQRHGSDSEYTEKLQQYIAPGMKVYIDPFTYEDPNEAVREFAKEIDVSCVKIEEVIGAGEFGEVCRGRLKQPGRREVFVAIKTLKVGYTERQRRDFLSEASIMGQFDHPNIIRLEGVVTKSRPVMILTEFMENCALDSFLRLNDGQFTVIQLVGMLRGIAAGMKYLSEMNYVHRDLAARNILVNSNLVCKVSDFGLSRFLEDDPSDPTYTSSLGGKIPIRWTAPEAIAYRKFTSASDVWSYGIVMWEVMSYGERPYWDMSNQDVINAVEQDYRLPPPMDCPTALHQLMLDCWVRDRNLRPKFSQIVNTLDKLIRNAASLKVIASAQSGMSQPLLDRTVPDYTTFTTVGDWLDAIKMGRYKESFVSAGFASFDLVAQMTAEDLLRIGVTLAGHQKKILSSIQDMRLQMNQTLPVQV

SRPK2 = molecular target: T27, SRPK2 (Homo sapiens, UniProt P78362)
T27 construct: purchased DiscoverX

EGFR_L858R = molecular target: T28, EGFR_L858R (Homo sapiens, UniProt P00533, L858R)
T28 construct: purchased DiscoverX

TYRO3 = molecular target: T29, TYRO3 (Homo sapiens, UniProt Q06418)
T29 construct: purchased DiscoverX

DYRK3 = molecular target: T30, DYRK3 (Homo sapiens, UniProt O43781)
T30 construct: purchased DiscoverX

STK16 = molecular target: T31, STK16 (Homo sapiens, UniProt O75716)
T31 construct: purchased DiscoverX

DAPK2 = molecular target: T32, DAPK2 (Homo sapiens, UniProt Q9UIK4)
T32 construct: purchased DiscoverX

STK39 = molecular target: T33, STK39 (Homo sapiens, UniProt Q9UEW8)
T33 construct: purchased DiscoverX

EPHA4 = molecular target: T34, EPHA4 (Homo sapiens, UniProt P54764)
T34 construct: purchased DiscoverX

INSRR = molecular target: T35, INSRR (Homo sapiens, UniProt P14616)
T35 construct: purchased DiscoverX

IRAK1 = molecular target: T36, IRAK1 (Homo sapiens, UniProt P51617)
T36 construct: purchased DiscoverX
T36 sequence (P51617 whole entry): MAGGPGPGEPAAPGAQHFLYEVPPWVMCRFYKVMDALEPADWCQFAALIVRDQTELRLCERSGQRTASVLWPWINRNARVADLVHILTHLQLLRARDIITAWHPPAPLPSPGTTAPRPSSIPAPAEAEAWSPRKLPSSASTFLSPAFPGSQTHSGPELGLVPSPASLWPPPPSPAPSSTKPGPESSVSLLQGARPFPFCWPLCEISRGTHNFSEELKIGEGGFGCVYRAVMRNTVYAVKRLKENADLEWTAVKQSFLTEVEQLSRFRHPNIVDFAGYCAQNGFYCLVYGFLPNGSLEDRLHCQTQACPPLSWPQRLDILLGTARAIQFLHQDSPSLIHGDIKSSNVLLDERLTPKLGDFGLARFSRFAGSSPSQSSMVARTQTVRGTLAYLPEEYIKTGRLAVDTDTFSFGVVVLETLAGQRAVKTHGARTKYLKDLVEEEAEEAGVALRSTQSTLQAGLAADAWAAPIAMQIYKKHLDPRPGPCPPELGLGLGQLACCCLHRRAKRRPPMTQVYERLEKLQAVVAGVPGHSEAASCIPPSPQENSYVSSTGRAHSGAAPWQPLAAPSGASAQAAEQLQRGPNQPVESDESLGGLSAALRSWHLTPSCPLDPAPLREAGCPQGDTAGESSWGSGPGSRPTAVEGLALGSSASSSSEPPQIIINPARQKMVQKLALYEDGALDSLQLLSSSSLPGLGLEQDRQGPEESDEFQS

FLT1 = molecular target: T37, FLT1 (Homo sapiens, UniProt P17948)
T37 construct: purchased DiscoverX

AKT3 = molecular target: T38, AKT3 (Homo sapiens, UniProt Q9Y243)
T38 construct: purchased DiscoverX

ADRBK1 = molecular target: T39, ADRBK1 (Homo sapiens, UniProt P25098)
T39 construct: purchased DiscoverX
T39 sequence (P25098 whole entry): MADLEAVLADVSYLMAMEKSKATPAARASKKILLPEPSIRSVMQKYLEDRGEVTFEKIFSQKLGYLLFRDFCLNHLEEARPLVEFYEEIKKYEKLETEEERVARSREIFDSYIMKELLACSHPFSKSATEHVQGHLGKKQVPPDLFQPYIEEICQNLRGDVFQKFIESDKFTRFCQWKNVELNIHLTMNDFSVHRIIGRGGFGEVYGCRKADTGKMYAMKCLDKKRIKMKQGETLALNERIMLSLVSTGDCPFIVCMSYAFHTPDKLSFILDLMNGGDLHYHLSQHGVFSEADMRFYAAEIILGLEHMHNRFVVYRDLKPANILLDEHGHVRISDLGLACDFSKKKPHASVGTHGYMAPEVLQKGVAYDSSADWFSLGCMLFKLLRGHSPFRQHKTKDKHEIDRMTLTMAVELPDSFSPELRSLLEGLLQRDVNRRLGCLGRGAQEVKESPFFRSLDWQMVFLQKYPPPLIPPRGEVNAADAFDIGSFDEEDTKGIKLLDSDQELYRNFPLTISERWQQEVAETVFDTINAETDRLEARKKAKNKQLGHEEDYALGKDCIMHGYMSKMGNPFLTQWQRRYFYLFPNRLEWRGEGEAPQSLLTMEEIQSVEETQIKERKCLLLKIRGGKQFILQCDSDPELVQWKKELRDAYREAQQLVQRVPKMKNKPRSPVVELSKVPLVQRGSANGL

TXK = molecular target: T40, TXK (Homo sapiens, UniProt P42681)
T40 construct: purchased DiscoverX

GSG2 = molecular target: T41, GSG2 (Homo sapiens, UniProt Q8TF76)
T41 construct: purchased DiscoverX

MET_M1250T = molecular target: T42, MET_M1250T (Homo sapiens, UniProt P08581, M1250T)
T42 construct: purchased DiscoverX

ACVRL1 = molecular target: T43, ACVRL1 (Homo sapiens, UniProt P37023)
T43 construct: purchased DiscoverX

NEK3 = molecular target: T44, NEK3 (Homo sapiens, UniProt P51956)
T44 construct: purchased DiscoverX

## Clc1cc2cc(c1)-c1cnn3ccc(nc13)NCCOCCO2 [OD36]
EGFR_S752-I759del
  inhibition at 0.1 µM: 17%
WEE1
  inhibition at 0.1 µM: 15%
PAK2
  inhibition at 0.1 µM: -5%
FGFR3
  inhibition at 0.1 µM: 7%
MAPK9
  inhibition at 0.1 µM: 12%
MAP3K7
  inhibition at 0.1 µM: 3%
CLK1
  inhibition at 0.1 µM: 7%
EPHB2
  inhibition at 0.1 µM: -2%
GRK7
  inhibition at 0.1 µM: 6%
MAP3K3
  inhibition at 0.1 µM: 1%
MAPKAPK2
  inhibition at 0.1 µM: -9%
WNK1
  inhibition at 0.1 µM: 18%
RPS6KA4
  inhibition at 0.1 µM: 19%
WNK2
  inhibition at 0.1 µM: 1%
ABL1_F317I
  inhibition at 0.1 µM: 8%
PIM3
  inhibition at 0.1 µM: 25%
MAPK12
  inhibition at 0.1 µM: 24%
PBK
  inhibition at 0.1 µM: 19%
MKNK1
  inhibition at 0.1 µM: 23%
TSSK2
  inhibition at 0.1 µM: -6%
ZAK
  inhibition at 0.1 µM: 70%
STK17A
  inhibition at 0.1 µM: 23%
SGK3
  inhibition at 0.1 µM: 7%
CLK2
  inhibition at 0.1 µM: 10%
AKT1
  inhibition at 0.1 µM: 4%
EPHB3
  inhibition at 0.1 µM: 1%
SRPK2
  inhibition at 0.1 µM: -2%
EGFR_L858R
  inhibition at 0.1 µM: 11%
TYRO3
  inhibition at 0.1 µM: 5%
DYRK3
  inhibition at 0.1 µM: 0%
STK16
  inhibition at 0.1 µM: 12%
DAPK2
  inhibition at 0.1 µM: 17%
STK39
  inhibition at 0.1 µM: 0%
EPHA4
  inhibition at 0.1 µM: -2%
INSRR
  inhibition at 0.1 µM: 0%
IRAK1
  inhibition at 0.1 µM: 9%
FLT1
  inhibition at 0.1 µM: 20%
AKT3
  inhibition at 0.1 µM: -1%
ADRBK1
  inhibition at 0.1 µM: 4%
TXK
  inhibition at 0.1 µM: 37%
GSG2
  inhibition at 0.1 µM: 50%
MET_M1250T
  inhibition at 0.1 µM: 12%
ACVRL1
  inhibition at 0.1 µM: 88%
NEK3
  inhibition at 0.1 µM: 22%

## Cc1cc2cc(c1)-c1cnn3ccc(nc13)NCCNC(=O)CCN(C)C2 [OD52]
EGFR_S752-I759del
  inhibition at 0.1 µM: -15%
WEE1
  inhibition at 0.1 µM: 3%
PAK2
  inhibition at 0.1 µM: -7%
FGFR3
  inhibition at 0.1 µM: -9%
MAPK9
  inhibition at 0.1 µM: -5%
MAP3K7
  inhibition at 0.1 µM: -6%
CLK1
  inhibition at 0.1 µM: 6%
EPHB2
  inhibition at 0.1 µM: 15%
GRK7
  inhibition at 0.1 µM: 12%
MAP3K3
  inhibition at 0.1 µM: 13%
MAPKAPK2
  inhibition at 0.1 µM: -1%
WNK1
  inhibition at 0.1 µM: -2%
RPS6KA4
  inhibition at 0.1 µM: -8%
WNK2
  inhibition at 0.1 µM: 17%
ABL1_F317I
  inhibition at 0.1 µM: -3%
PIM3
  inhibition at 0.1 µM: 10%
MAPK12
  inhibition at 0.1 µM: -10%
PBK
  inhibition at 0.1 µM: -5%
MKNK1
  inhibition at 0.1 µM: -11%
TSSK2
  inhibition at 0.1 µM: 11%
ZAK
  inhibition at 0.1 µM: 6%
STK17A
  inhibition at 0.1 µM: 4%
SGK3
  inhibition at 0.1 µM: 0%
CLK2
  inhibition at 0.1 µM: 1%
AKT1
  inhibition at 0.1 µM: -4%
EPHB3
  inhibition at 0.1 µM: -8%
SRPK2
  inhibition at 0.1 µM: -16%
EGFR_L858R
  inhibition at 0.1 µM: -23%
TYRO3
  inhibition at 0.1 µM: -7%
DYRK3
  inhibition at 0.1 µM: -5%
STK16
  inhibition at 0.1 µM: 9%
DAPK2
  inhibition at 0.1 µM: -10%
STK39
  inhibition at 0.1 µM: 5%
EPHA4
  inhibition at 0.1 µM: -7%
INSRR
  inhibition at 0.1 µM: 6%
IRAK1
  inhibition at 0.1 µM: 16%
FLT1
  inhibition at 0.1 µM: -4%
AKT3
  inhibition at 0.1 µM: 2%
ADRBK1
  inhibition at 0.1 µM: 10%
TXK
  inhibition at 0.1 µM: 25%
GSG2
  inhibition at 0.1 µM: 20%
MET_M1250T
  inhibition at 0.1 µM: -19%
ACVRL1
  inhibition at 0.1 µM: 89%
NEK3
  inhibition at 0.1 µM: 6%
